These results are taken from patent publication US20240190880A1 (THE REGENTS OF THE UNIVERSITY OF MICHIGAN, priority 2021, published 2024).

One test has as its target T1, ER (Homo sapiens, UniProt P03372).
T1 construct: host or cells: T47D and MCF7 human breast cancer cells
T1 sequence (P03372 1-595): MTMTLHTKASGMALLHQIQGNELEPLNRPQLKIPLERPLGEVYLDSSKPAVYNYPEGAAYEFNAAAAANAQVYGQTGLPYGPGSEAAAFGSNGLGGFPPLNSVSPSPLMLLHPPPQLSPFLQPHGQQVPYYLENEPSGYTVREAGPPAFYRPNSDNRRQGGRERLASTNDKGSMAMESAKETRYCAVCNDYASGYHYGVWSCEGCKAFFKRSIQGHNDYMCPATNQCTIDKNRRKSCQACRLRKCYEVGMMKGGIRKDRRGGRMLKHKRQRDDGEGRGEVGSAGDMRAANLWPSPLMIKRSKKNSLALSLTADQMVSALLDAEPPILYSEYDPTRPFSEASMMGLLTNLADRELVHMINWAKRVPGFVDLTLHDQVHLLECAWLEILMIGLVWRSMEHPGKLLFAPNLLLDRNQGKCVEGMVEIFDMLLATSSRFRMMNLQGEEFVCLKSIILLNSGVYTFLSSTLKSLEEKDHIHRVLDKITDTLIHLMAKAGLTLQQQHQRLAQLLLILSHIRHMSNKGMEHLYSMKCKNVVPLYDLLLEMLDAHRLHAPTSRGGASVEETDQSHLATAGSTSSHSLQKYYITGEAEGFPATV
The test is described as follows: ER degradation activity, in-cell western blot analysis in T47D cells. The format is cell-based. Particulars: 16 hours, Table A does not say which cell line (T47D or MCF7), read-out: Potency (DC50). The procedure, abridged:
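T47D cells grown in DMEM with 10% FBS were treated with compounds for 16 hours at 0.5% DMSO final. ER was detected by in-cell western using 680/800 near-infrared secondary antibodies. Residual ER is given as percent of untreated and DMSO-treated wells set to 100%.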
One may read the DC50 as the concentration at which degradation of the target reaches its halfway point. For `O=C1CCC(N2C(=O)c3cc4c(cc3C2=O)CN(CC(=O)N2CCC3(CC2)CCN(c2ccc([C@@H]5c6ccc(O)cc6CC[C@@H]5c5ccccc5)cc2)CC3)C4)C(=O)N1` (mixture of isomers) [E 20, Rac-2-(2,6-dioxopiperidin-3-yl)-6-(2-(9-(4-((1R,2S)-6-hydroxy-2-phenyl-1,2,3,4-tetrahydronaphthalen-1-yl)phenyl)-3,9-diazaspiro[5.5]undecan-3-yl)-2-oxoethyl)-6,7-dihydropyrrolo[3,4-f]isoindole-1,3(2H,5H)-dione], the DC50 fell in the range of 10 to 100 nM.

`O=C1CCC(N2C(=O)c3cc4c(cc3C2=O)CN(CC(=O)N2CCC3(C2)CN(c2ccc([C@@H]5c6ccc(O)cc6CC[C@@H]5c5ccccc5)cc2)C3)C4)C(=O)N1` (mixture of isomers) [E 17, rac-2-(2,6-dioxopiperidin-3-yl)-6-(2-(2-(4-((1R,2S)-6-hydroxy-2-phenyl-1,2,3,4-tetrahydronaphthalen-1-yl)phenyl)-2,6-diazaspiro[3.4]octan-6-yl)-2-oxoethyl)-6,7-dihydropyrrolo[3,4-f]isoindole-1,3(2H,5H)-dione]: the DC50 fell in the range of 10 to 100 nM.

Staying with this test, now noted: compounds 16 hours, Table A does not say whether T47D or MCF7, read-out: Potency (DC50).
Take `C[C@@H]1Cc2c([nH]c3ccccc23)[C@@H](c2ccc(C3=CCC(C(=O)N4CCC(N5Cc6cc7c(cc6C5)C(=O)N(C5CCC(=O)NC5=O)C7=O)CC4)CC3)cc2F)N1CC(C)(C)F` (stereo partly drawn) [E 481, 2-(2,6-dioxopiperidin-3-yl)-6-(1-(3′-fluoro-4′-((1R,3R)-2-(2-fluoro-2-methylpropyl)-3-methyl-2,3,4,9-tetrahydro-1H-pyrido[3,4-b]indol-1-yl)-2,3,4,5-tetrahydro-[1,1′-biphenyl]-4-carbonyl)piperidin-4-yl)-6,7-dihydropyrrolo[3,4-f]isoindole-1,3(2H,5H)-dione]: the DC50 lay in the range of 10 to 100 nM.

Turning to `O=C1CCC(N2Cc3cc4c(cc3C2=O)CN(C2CCN(CC3CCN(c5ccc([C@@H]6c7ccc(O)cc7CC[C@@H]6c6ccccc6)cc5)CC3)CC2)C4=O)C(=O)N1` (stereo partly drawn) [E 506, 2-(2,6-dioxopiperidin-3-yl)-6-(1-((1-(4-((1R,2S)-6-hydroxy-2-phenyl-1,2,3,4-tetrahydronaphthalen-1-yl)phenyl)piperidin-4-yl)methyl)piperidin-4-yl)-2,3,6,7-tetrahydropyrrolo[3,4-f]isoindole-1,5-dione], the DC50 was > 100 nM. The same measure, in the same setting: to `COc1cc([C@H]2CC[C@@H](C(=O)N3CCC(N4Cc5cc6c(cc5C4)C(=O)N(C4CCC(=O)NC4=O)C6=O)CC3)CC2)ncc1[C@@H]1c2[nH]c3ccccc3c2C[C@@H](C)N1CC(F)F` (stereo partly drawn) [E 396, 6-(1-((1S,4s)-4-(5-((1R,3R)-2-(2,2-difluoroethyl)-3-methyl-2,3,4,9-tetrahydro-1H-pyrido[3,4-b]indol-1-yl)-4-methoxypyridin-2-yl)cyclohexane-1-carbonyl)piperidin-4-yl)-2-(2,6-dioxopiperidin-3-yl)-6,7-dihydropyrrolo[3,4-f]isoindole-1,3(2H,5H)-dione] belongs > 100 nM; to `C[C@@H]1Cc2cc(O)ccc2C(c2ccc(C3CCC4(CC3)CCN(C(=O)CN3Cc5cc6c(cc5C3)C(=O)N(C3CCC(=O)NC3=O)C6=O)CC4)cc2)N1CC(F)F` (stereo partly drawn) [E 450, 6-(2-(9-(4-((3R)-2-(2,2-difluoroethyl)-6-hydroxy-3-methyl-1,2,3,4-tetrahydroisoquinolin-1-yl)phenyl)-3-azaspiro[5.5]undecan-3-yl)-2-oxoethyl)-2-(2,6-dioxopiperidin-3-yl)-6,7-dihydropyrrolo[3,4-f]isoindole-1,3(2H,5H)-dione], 10 to 100 nM; to `C[C@@H]1Cc2c([nH]c3ccccc23)[C@@H](c2ncc(C3=CCC(C(=O)N4CCC(N5Cc6cc7c(cc6C5)C(=O)N(C5CCC(=O)NC5=O)C7=O)CC4)CC3)cc2F)N1CC(F)F` (stereo partly drawn) [E 399, 6-(1-(4-(6-((1S,3R)-2-(2,2-difluoroethyl)-3-methyl-2,3,4,9-tetrahydro-1H-pyrido[3,4-b]indol-1-yl)-5-fluoropyridin-3-yl)cyclohex-3-ene-1-carbonyl)piperidin-4-yl)-2-(2,6-dioxopiperidin-3-yl)-6,7-dihydropyrrolo[3,4-f]isoindole-1,3(2H,5H)-dione], > 100 nM.
